Our source for the IC50 values is ChEMBL document CHEMBL2439957, “Design and synthesis of novel pyrimidone analogues as HIV-1 integrase inhibitors” (Bioorg Med Chem Lett, 2013).

Test [1] deals with T1, Human immunodeficiency virus type 1 integrase (Human immunodeficiency virus 1, UniProt Q7ZJM1). In words: Inhibition of Human immunodeficiency virus 1 integrase strand transfer activity after 30 mins by polyacrylamide gel electrophoresis.
For test [2], the target named is T1, Human immunodeficiency virus type 1 integrase. Nature of the test: Inhibition of Human immunodeficiency virus 1 integrase 3'-processing activity after 30 mins by polyacrylamide gel electrophoresis.

T1 sequence (Q7ZJM1 whole entry): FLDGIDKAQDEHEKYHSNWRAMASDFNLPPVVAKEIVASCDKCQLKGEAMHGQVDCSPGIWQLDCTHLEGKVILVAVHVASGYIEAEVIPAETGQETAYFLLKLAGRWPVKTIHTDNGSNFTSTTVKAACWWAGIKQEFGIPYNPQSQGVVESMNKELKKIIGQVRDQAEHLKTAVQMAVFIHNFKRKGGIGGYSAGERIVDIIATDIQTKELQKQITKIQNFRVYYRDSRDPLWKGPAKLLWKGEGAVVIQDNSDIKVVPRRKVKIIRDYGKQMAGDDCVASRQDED

For `CC(C)(C)c1nc(C(=O)NCc2ccc(F)cc2)c(O)c(=O)n1CCCNC(=O)C1CC1` [listing 1 of 2 here], the IC50 in test [1] was 5 µM; in test [2], > 20 µM.
`CC(=O)Nc1ccc(S(=O)(=O)NCCCn2c(C(C)(C)C)nc(C(=O)NCc3ccc(F)cc3)c(O)c2=O)cc1`: the IC50 in test [1] was 8 µM; in test [2], > 20 µM.
In the case of `CC(C)(C)C(=O)NCCCn1c(C(C)(C)C)nc(C(=O)NCc2ccc(F)cc2)c(O)c1=O`, the IC50 was 20 µM in test [1] and > 20 µM in test [2].
For the compound `CCCC(=O)NCCCn1c(C(C)(C)C)nc(C(=O)NCc2ccc(F)cc2)c(O)c1=O`, the figures for the IC50 in test [1] and in test [2] were 20 µM and > 20 µM, respectively.
In test [1], `CC(C)(C)c1nc(C(=O)NCc2ccc(F)cc2)c(O)c(=O)n1CCCNC(=O)C1CC1` [listing 2 of 2 here] came in with a half-inhibitory concentration (IC50) of 3 µM. That is a single-digit micromolar value.
Consider `CC(C)(C)c1nc(C(=O)NCc2ccc(F)cc2)c(O)c(=O)n1CCCNC(=O)Cc1cccs1`, for which the IC50 was 20 µM in test [1] and > 20 µM in test [2].
Turning to `CCC(=O)NCCCn1c(C(C)(C)C)nc(C(=O)NCc2ccc(F)cc2)c(O)c1=O` [listing 1 of 2 here], the figures for the IC50 in test [1] and in test [2] were 4 µM and > 20 µM, respectively.
For `CC(C)(C)c1nc(C(=O)NCc2ccc(F)cc2)c(O)c(=O)n1CCCNC(=O)c1ccco1`, in that order: 3 µM and > 20 µM.
On to `Cn1cnc(S(=O)(=O)NCCCn2c(C(C)(C)C)nc(C(=O)NCc3ccc(F)cc3)c(O)c2=O)c1`, for which the IC50 in test [1] was 12 µM; in test [2] it was > 20 µM.
Consider `CC(=O)NCCCn1c(C(C)(C)C)nc(C(=O)NCc2ccc(F)cc2)c(O)c1=O`, for which the IC50 is 2 µM in test [1] and > 20 µM in test [2].
Regarding `CCS(=O)(=O)NCCCn1c(C(C)(C)C)nc(C(=O)NCc2ccc(F)cc2)c(O)c1=O`, the IC50 is 7 µM in test [1] and > 20 µM in test [2].
With `CC(C)(C)c1nc(C(=O)NCc2ccc(F)cc2)c(O)c(=O)n1CCCNS(=O)(=O)c1ccccc1`, the IC50 in test [1] was 20 µM; in test [2], > 20 µM.
For `CC(C)(C)c1nc(O)c(O)c(C(=O)NCc2ccc(F)cc2)n1`, in that order: 2 µM and > 20 µM.
Consider `CC(C)(C)c1nc(C(=O)NCc2ccc(F)cc2)c(O)c(=O)n1CCCNC(=O)c1ccccc1`, for which the IC50 in test [1] was 13 µM; in test [2] it was > 20 µM.
The matching figures for `CC(C)(C)c1nc(C(=O)NCc2ccc(F)cc2)c(O)c(=O)n1CCCNC(=O)c1cccs1`: 14 µM and > 20 µM.
Consider `CC(C)(C)OC(=O)NCCCn1c(C(C)(C)C)nc(C(=O)NCc2ccc(F)cc2)c(O)c1=O`, for which the half-maximal inhibitory concentration (IC50) in test [1] and in test [2] was > 20 µM in each case.
Turning to `CC(C)(C)c1nc(C(=O)NCc2ccc(F)cc2)c(O)c(=O)n1CCCN`, the IC50 in test [1] and in test [2] was > 20 µM each time.
`CCC(=O)NCCCn1c(C(C)(C)C)nc(C(=O)NCc2ccc(F)cc2)c(O)c1=O` [listing 2 of 2 here] showed an IC50 in test [1] of 6 µM.
`CC(C)(C)c1nc(C(=O)NCc2ccc(F)cc2)c(O)c(=O)n1CCCNS(=O)(=O)C1CC1` [listing 1 of 2 here] registered an IC50 in test [1] of 20 µM.
As for `CC(C)(C)c1nc(C(=O)NCc2ccc(F)cc2)c(O)c(=O)n1CCCNS(=O)(=O)C1CC1` [listing 2 of 2 here], the concentration for half-maximal inhibition (IC50) in test [1] was 9 µM; in test [2], > 20 µM.

A word on the IC50: it is the concentration that gives 50% inhibition. A high value points to weaker potency in that assay.
